Read-outs that look alike come from different tables or passages of the source.
Legend:
Type in all cases: cell-based, Escherichia coli
wild-type (WT) K-12-Pore = test: microbe, parasite or virus in culture; conditions: technical duplicate; for MIC: Escherichia coli
Method in brief: (§1)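 E. coli strains carrying a genomically integrated constitutive fhuA ΔC/Δ4L pore were grown 18 h in LB at 37 °C, then diluted 1/2000 in MHB II from OD600 ~1.0. Compounds were tested in duplicate, 2-fold serial titration, for 18 h at 37 °C with shaking. MIC came from OD600 with the pre-incubation background subtracted.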

ΔtolC-Pore = test: microbe, parasite or virus in culture; conditions: for Minimum inhibitory concentration (MIC), Pore ΔtolC: Table 10, with pore
Method in brief: as §1

EKO-35 araC::acrEF Pore = test: MIC susceptibility profiling, porinated efflux platform; conditions: for Fold changes of MICs: EKO-35 araC::acrEF Pore compared to EKO-35-Pore
Method in brief: as §1

EKO-35 araC::macAB Pore = test: as above; conditions: for Fold changes of MICs: EKO-35 araC::macAB Pore compared to EKO-35-Pore
Method in brief: as §1

EKO-35 araC::emrKY Pore = test: as above; conditions: for Fold changes of MICs: EKO-35 araC::emrKY Pore compared to EKO-35-Pore
Method in brief: as §1

EKO-35 araC::mdtBC Pore = test: as above; conditions: for Fold changes of MICs: EKO-35 araC::mdtBC Pore compared to EKO-35-Pore
Method in brief: as §1

EKO-35 araC::mdtEF Pore = test: as above; conditions: for Fold changes of MICs: EKO-35 araC::mdtEF Pore compared to EKO-35-Pore
Method in brief: as §1

EKO-35 araC::acrB Pore = test: as above; conditions: for Fold changes of MICs: EKO-35 araC::acr-B Pore compared to EKO-35-Pore
Method in brief: as §1

[1] = tested on: EKO-35 araC::acrBD408A Pore; test: as above; conditions: for Fold changes of MICs: EKO-35 araC::acrBD408A Pore compared to EKO-35-Pore
Method in brief: as §1

EKO-35 araC::emrAB Pore = test: as above; conditions: for Fold changes of MICs: EKO-35 araC::emrAB Pore compared to EKO-35-Pore
Method in brief: as §1

EKO-35 araC::acrD Pore = test: as above; conditions: for Fold changes of MICs: EKO-35 araC::acrD Pore compared to EKO-35-Pore
Method in brief: as §1

EKO-35 araC::mexCD Pore = test: as above; conditions: for Fold changes of MICs: EKO-35 araC::mexCD Pore compared to EKO-35-Pore
Method in brief: as §1

EKO-35 araC::emrAB = test: MIC susceptibility profiling, efflux platform; conditions: for Fold change of MICs: EKO-35 araC::emrAB compared to EKO-35
Method in brief: (§2)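 Overnight LB cultures were grown at 37 °C with aeration, then washed into PBS, pH 7.4, to OD600 ~1.0. A 1/2000 dilution in MHB II was exposed to compound dilution series for 18 h at 37 °C. The MIC was taken from corrected OD600.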

EKO-35 araC::acrEF = test: MIC susceptibility profiling, efflux platform; conditions: for Fold change of MICs: EKO-35 araC::acrEF compared to EKO-35
Method in brief: as §2

EKO-35 araC::emrKY = test: MIC susceptibility profiling, efflux platform; conditions: for Fold change of MICs: EKO-35 araC::emrKY compared to EKO-35
Method in brief: as §2

EKO-35 araC::acrBD408A = test: MIC susceptibility profiling, efflux platform; conditions: for Fold change of MICs: EKO-35 araC::acrBD408A compared to EKO-35
Method in brief: as §2

EKO-35 araC::macAB = test: MIC susceptibility profiling, efflux platform; conditions: for Fold change of MICs: EKO-35 araC::macAB compared to EKO-35
Method in brief: as §2

EKO-35 araC::mdtEF = test: MIC susceptibility profiling, efflux platform; conditions: for Fold change of MICs: EKO-35 araC::mdtEF compared to EKO-35
Method in brief: as §2

[2] = Table 14A, porinated, technical duplicate
[3] = Table 13B, non-porinated, technical duplicate
[4] = Table 13A, non-porinated, technical duplicate

Q: Which “Minimum inhibitory concentration (MIC), Pore K-12” value (wild-type (WT) K-12-Pore; Table 10, with pore) does the source give for COC(=O)c1sc(N2CCCC2)c(C#N)c1-c1cccs1 [compound 10] here?
A: 160 µg/mL

Q: And the “Minimum inhibitory concentration, K-12 (WT)-Pore” value (wild-type (WT) K-12-Pore; Table 14A, porinated)?
A: 160 µg/mL

Q: And the “Minimum inhibitory concentration (MIC), Pore ΔtolC” value (ΔtolC-Pore; technical duplicate)?
A: 5 µg/mL

Q: What about the “Minimum inhibitory concentration, ΔtolC-Pore” value (ΔtolC-Pore; [2]) of the same compound?
A: 5 µg/mL

Q: And the “efflux pump-mediated resistance vs EKO-35-Pore” value (EKO-35 araC::acrEF Pore; AcrEF with the pore)?
A: increased resistance

Q: And the “Fold changes of MICs” value (EKO-35 araC::acrEF Pore)?
A: 16 fold

Q: And the “Minimum inhibitory concentration, EKO-35 araC::acrEF Pore” value (EKO-35 araC::acrEF Pore; [2])?
A: 160 µg/mL

Q: And the “Fold changes of MICs” value (EKO-35 araC::macAB Pore)?
A: 1 fold

Q: What about the Minimum inhibitory concentration (EKO-35 araC::macAB Pore; EKO-35 araC::macAB Pore, technical duplicate) of the same compound?
A: 10 µg/mL

Q: And the “Fold changes of MICs” value (EKO-35 araC::emrKY Pore)?
A: 1 fold

Q: What about the Minimum inhibitory concentration (EKO-35 araC::emrKY Pore; EKO-35 araC::emrKY Pore, technical duplicate) of the same compound?
A: 10 µg/mL

Q: And the “Fold changes of MICs” value (EKO-35 araC::mdtBC Pore)?
A: 1 fold

Q: What about the Minimum inhibitory concentration (EKO-35 araC::mdtBC Pore; EKO-35 araC::mdtBC Pore, technical duplicate) of the same compound?
A: 10 µg/mL

Q: What about the “Fold changes of MICs” value (EKO-35 araC::mdtEF Pore) of the same compound?
A: 16 fold

Q: What about the “efflux pump-mediated resistance vs EKO-35-Pore” value (EKO-35 araC::mdtEF Pore; MdtEF with the pore) of the same compound?
A: increased resistance

Q: And the “Minimum inhibitory concentration, EKO-35 araC::mdtEF Pore” value (EKO-35 araC::mdtEF Pore; [2])?
A: 160 µg/mL

Q: And the “efflux pump-mediated resistance vs EKO-35-Pore” value (EKO-35 araC::acrB Pore; AcrB with the pore)?
A: increased resistance

Q: What about the “Fold changes of MICs” value (EKO-35 araC::acrB Pore) of the same compound?
A: 16 fold

Q: And the “Minimum inhibitory concentration, EKO-35 araC::acrB Pore” value (EKO-35 araC::acrB Pore; [2])?
A: 160 µg/mL

Q: What about the “Fold changes of MICs” value [1] of the same compound?
A: 1 fold

Q: And the Minimum inhibitory concentration ([1]; EKO-35 araC::acrBD408A Pore, technical duplicate)?
A: 10 µg/mL

Q: And the “Fold changes of MICs” value (EKO-35 araC::emrAB Pore)?
A: 16 fold

Q: What about the Minimum inhibitory concentration (EKO-35 araC::emrAB Pore; EKO-35 araC::emrAB Pore, technical duplicate) of the same compound?
A: 160 µg/mL

Q: And the “efflux pump-mediated resistance vs EKO-35-Pore” value (EKO-35 araC::emrAB Pore; EmrAB, porinated strain)?
A: associated with resistance

Q: And the “Fold changes of MICs” value (EKO-35 araC::acrD Pore)?
A: 16 fold

Q: What about the “Minimum inhibitory concentration, EKO-35 araC::acrD Pore” value (EKO-35 araC::acrD Pore; [2]) of the same compound?
A: 160 µg/mL

Q: What about the “Fold changes of MICs” value (EKO-35 araC::mexCD Pore) of the same compound?
A: 16 fold

Q: What about the Minimum inhibitory concentration (EKO-35 araC::mexCD Pore; EKO-35 araC::mexCD Pore, technical duplicate) of the same compound?
A: 160 µg/mL

Q: What about the “efflux pump-mediated resistance vs EKO-35-Pore” value (EKO-35 araC::mexCD Pore; MexCD, OM compromised) of the same compound?
A: increased resistance

Q: What about the “Fold change of MICs” value (EKO-35 araC::emrAB) of the same compound?
A: 1 fold

Q: And the “Minimum Inhibitory Concentration, EKO-35 araC::emrAB” value (EKO-35 araC::emrAB; [3])?
A: 160 µg/mL

Q: What about the “Fold change of MICs” value (EKO-35 araC::acrEF) of the same compound?
A: 1 fold

Q: What about the “Minimum Inhibitory Concentration, EKO-35 araC::acrEF” value (EKO-35 araC::acrEF; [4]) of the same compound?
A: 160 µg/mL

Q: And the “Fold change of MICs” value (EKO-35 araC::emrKY)?
A: 1 fold

Q: What about the “Minimum Inhibitory Concentration, EKO-35 araC::emrKY” value (EKO-35 araC::emrKY; [3]) of the same compound?
A: 160 µg/mL

Q: What about the “Fold change of MICs” value (EKO-35 araC::acrBD408A) of the same compound?
A: 1 fold

Q: What about the “Minimum Inhibitory Concentration, EKO-35 araC::acrBD408A” value (EKO-35 araC::acrBD408A; [3]) of the same compound?
A: 160 µg/mL

Q: What about the “Fold change of MICs” value (EKO-35 araC::macAB) of the same compound?
A: 1 fold

Q: What about the “Minimum Inhibitory Concentration, EKO-35 araC::macAB” value (EKO-35 araC::macAB; [3]) of the same compound?
A: 160 µg/mL

Q: And the “Fold change of MICs” value (EKO-35 araC::mdtEF)?
A: 1 fold

Q: And the “Minimum Inhibitory Concentration, EKO-35 araC::mdtEF” value (EKO-35 araC::mdtEF; [4])?
A: 160 µg/mL

Q: What does the source list for CN[C@@H]1[C@H](O)[C@H](NC)[C@H]2O[C@@]3(O)C(=O)C[C@@H](C)O[C@H]3O[C@@H]2[C@H]1O [Spectinomycin]?
A: MIC (wild-type (WT) K-12-Pore; Table 10, with pore, read-out: Minimum inhibitory concentration (MIC), Pore K-12): 12.5 µg/mL; MIC (wild-type (WT) K-12-Pore; Table 14A, porinated, read-out: Minimum inhibitory concentration, K-12 (WT)-Pore): 12.5 µg/mL; MIC (ΔtolC-Pore; Escherichia coli, 18 h, read-out: Minimum inhibitory concentration, ΔtolC-Pore): 6.25 µg/mL; Minimum inhibitory concentration (MIC), Pore ΔtolC (ΔtolC-Pore; technical duplicate): 6.25 µg/mL; Fold changes of MICs (EKO-35 araC::acrEF Pore): 1 fold; Fold changes of MICs (EKO-35 araC::macAB Pore): 1 fold; Fold changes of MICs (EKO-35 araC::emrKY Pore): 1 fold; Fold changes of MICs (EKO-35 araC::mdtBC Pore): 1 fold; Fold changes of MICs (EKO-35 araC::mdtEF Pore): 1 fold; Fold changes of MICs (EKO-35 araC::acrB Pore): 2 fold; MIC (EKO-35 araC::acrB Pore; Escherichia coli, Table 14A, porinated, technical duplicate, read-out: Minimum inhibitory concentration, EKO-35 araC::acrB Pore): 25 µg/mL; Fold changes of MICs [1]: 1 fold; Fold changes of MICs (EKO-35 araC::emrAB Pore): 1 fold; Fold changes of MICs (EKO-35 araC::acrD Pore): 2 fold; MIC (EKO-35 araC::acrD Pore; Escherichia coli, Table 14A, porinated, technical duplicate, read-out: Minimum inhibitory concentration, EKO-35 araC::acrD Pore): 25 µg/mL; Fold changes of MICs (EKO-35 araC::mexCD Pore): 1 fold; Fold change of MICs (EKO-35 araC::emrAB): 1 fold; MIC (EKO-35 araC::emrAB; Escherichia coli, Table 13B, non-porinated, technical duplicate, read-out: Minimum Inhibitory Concentration, EKO-35 araC::emrAB): 25 µg/mL; Fold change of MICs (EKO-35 araC::acrEF): 1 fold; MIC (EKO-35 araC::acrEF; Escherichia coli, Table 13A, non-porinated, technical duplicate, read-out: Minimum Inhibitory Concentration, EKO-35 araC::acrEF): 25 µg/mL; Fold change of MICs (EKO-35 araC::emrKY): 1 fold; MIC (EKO-35 araC::emrKY; Escherichia coli, Table 13B, non-porinated, technical duplicate, read-out: Minimum Inhibitory Concentration, EKO-35 araC::emrKY): 25 µg/mL; Fold change of MICs (EKO-35 araC::acrBD408A): 1 fold; MIC (EKO-35 araC::acrBD408A; Escherichia coli, Table 13B, non-porinated, technical duplicate, read-out: Minimum Inhibitory Concentration, EKO-35 araC::acrBD408A): 25 µg/mL; Fold change of MICs (EKO-35 araC::macAB): 1 fold; MIC (EKO-35 araC::macAB; Escherichia coli, Table 13B, non-porinated, technical duplicate, read-out: Minimum Inhibitory Concentration, EKO-35 araC::macAB): 25 µg/mL; Fold change of MICs (EKO-35 araC::mdtEF): 1 fold; MIC (EKO-35 araC::mdtEF; Escherichia coli, Table 13A, non-porinated, technical duplicate, read-out: Minimum Inhibitory Concentration, EKO-35 araC::mdtEF): 25 µg/mL

Reference: patent US20230407243A1, “GENETIC PLATFORM TO INVESTIGATE THE FUNCTIONS OF BACTERIAL DRUG EFFLUX PUMPS” (priority 2022, published 2023)
